Results from ChEMBL document CHEMBL3885861, “Open TG-GATES”.

Species on record: Rattus norvegicus
Assay: Open TG-GATES - Regimen: Daily Repeat
Type: toxicity, organism-based, Sprague-Dawley
Design: regimen Daily Repeat, gender Male, age 6 weeks
Conditions: in vivo, po, 30 mg/kg, route gavage, dose level Middle; for APTT / Bas / Eos / Fbg / Hb / Ht / Lym / MCH / MCHC / MCV / Mono / Neu / PT / Plat / RBC / Ret / WBC: tissue Blood; for KIDNEY_L / KIDNEY_R / KIDNEY_TOTAL: tissue Kidney; for LIVER: tissue Liver; for A/G / ALP / ALT / AST / BUN / CRE / Ca / Cl / DBIL / GLC / IP / K / LDH / Na / PL / RALB / TBIL / TC / TG / TP / gamma-GTP: tissue Plasma

## O=C1CN(/N=C/c2ccc([N+](=O)[O-])o2)C(=O)N1 [NITROFURANTOIN]
72 h, time 3 day
  TERMINAL_BW: 243.4 g
  APTT: 18.9 s
  Bas: 0%
  Eos: 1%
  Fbg: 216.2 mg/dL
  Hb: 13.6 g/dL
  Ht: 38.5%
  Lym: 79.4%
  MCH: 22 pg
  MCHC: 35.3%
  MCV: 62.3 fL
  Mono: 3.2%
  Neu: 15.4%
  PT: 12.6 s
  Plat: 121.2 x10_4/uL
  RBC: 617.8 x10_4/ul
  Ret: 6.3%
  WBC: 106.9 x10_2/uL
  KIDNEY_L: 1 g
  KIDNEY_R: 1 g
  KIDNEY_TOTAL: 2.1 g
  LIVER: 11.6 g
  A/G: 1.6
  ALP: 1110 IU/L
  ALT: 35.4 IU/L
  AST: 67.2 IU/L
  BUN: 14.2 mg/dL
  CRE: 0.4 mg/dL
  Ca: 10.6 mg/dL
  Cl: 101.6 meq/L
  DBIL: 0.094 mg/dL
  GLC: 210.8 mg/dL
  IP: 7.6 mg/dL
  K: 3.8 meq/L
  LDH: 212 IU/L
  Na: 140.4 meq/L
  PL: 140.2 mg/dL
  RALB: 3.5 g/dL
  TBIL: 0.1 mg/dL
  TC: 70.6 mg/dL
  TG: 80.2 mg/dL
  TP: 5.6 g/dL
  gamma-GTP: 1 IU/L
[…], time 7 day
  TERMINAL_BW: 275.5 g
  APTT: 18.5 s
  Bas: 0%
  Eos: 1%
  Fbg: 223 mg/dL
  Hb: 13.5 g/dL
  Ht: 38%
  Lym: 81%
  MCH: 21.3 pg
  MCHC: 35.6%
  MCV: 60 fL
  Mono: 2.2%
  Neu: 15.4%
  PT: 12.6 s
  Plat: 125.8 x10_4/uL
  RBC: 634.2 x10_4/ul
  Ret: 5.3%
  WBC: 120.4 x10_2/uL
  KIDNEY_L: 1.1 g
  KIDNEY_R: 1.1 g
  KIDNEY_TOTAL: 2.2 g
  LIVER: 12.9 g
  A/G: 1.3
  ALP: 965 IU/L
  ALT: 30.6 IU/L
  AST: 57.6 IU/L
  BUN: 17.6 mg/dL
  CRE: 0.4 mg/dL
  Ca: 10.7 mg/dL
  Cl: 101.8 meq/L
  DBIL: 0.1 mg/dL
  GLC: 197.6 mg/dL
  IP: 7.1 mg/dL
  K: 4.2 meq/L
  LDH: 193 IU/L
  Na: 140.4 meq/L
  PL: 164 mg/dL
  RALB: 3.3 g/dL
  TBIL: 0.2 mg/dL
  TC: 80.6 mg/dL
  TG: 163.2 mg/dL
  TP: 5.8 g/dL
  gamma-GTP: 1.2 IU/L
[…], time 14 day
  TERMINAL_BW: 332 g
  APTT: 18.9 s
  Bas: 0%
  Eos: 0.8%
  Fbg: 224 mg/dL
  Hb: 14.4 g/dL
  Ht: 41.6%
  Lym: 79.4%
  MCH: 20.8 pg
  MCHC: 34.7%
  MCV: 60 fL
  Mono: 2.2%
  Neu: 16.8%
  PT: 12.4 s
  Plat: 120.1 x10_4/uL
  RBC: 693 x10_4/ul
  Ret: 4.7%
  WBC: 121.2 x10_2/uL
  KIDNEY_L: 1.4 g
  KIDNEY_R: 1.4 g
  KIDNEY_TOTAL: 2.7 g
  LIVER: 14.8 g
  A/G: 1.4
  ALP: 790.8 IU/L
  ALT: 33.2 IU/L
  AST: 58 IU/L
  BUN: 15.8 mg/dL
  CRE: 0.4 mg/dL
  Ca: 10.4 mg/dL
  Cl: 102.8 meq/L
  DBIL: 0.1 mg/dL
  GLC: 212.6 mg/dL
  IP: 7.1 mg/dL
  K: 3.7 meq/L
  LDH: 180.8 IU/L
  Na: 140.6 meq/L
  PL: 161.4 mg/dL
  RALB: 3.4 g/dL
  TBIL: 0.2 mg/dL
  TC: 78 mg/dL
  TG: 126.6 mg/dL
  TP: 5.9 g/dL
  gamma-GTP: 1.2 IU/L
[…], time 28 day
  TERMINAL_BW: 404.8 g
  APTT: 20.8 s
  Bas: 0%
  Eos: 1.2%
  Fbg: 215 mg/dL
  Hb: 15.3 g/dL
  Ht: 43.5%
  Lym: 80.8%
  MCH: 19.8 pg
  MCHC: 35.1%
  MCV: 56.5 fL
  Mono: 2.6%
  Neu: 14.2%
  PT: 12.7 s
  Plat: 118.4 x10_4/uL
  RBC: 770.8 x10_4/ul
  Ret: 2.9%
  WBC: 92.9 x10_2/uL
  KIDNEY_L: 1.5 g
  KIDNEY_R: 1.5 g
  KIDNEY_TOTAL: 3 g
  LIVER: 16.9 g
  A/G: 1.4
  ALP: 568.2 IU/L
  ALT: 31.6 IU/L
  AST: 54.4 IU/L
  BUN: 16.4 mg/dL
  CRE: 0.5 mg/dL
  Ca: 10.5 mg/dL
  Cl: 103.2 meq/L
  DBIL: 0.1 mg/dL
  GLC: 208 mg/dL
  IP: 6.3 mg/dL
  K: 3.5 meq/L
  LDH: 133.4 IU/L
  Na: 140.6 meq/L
  PL: 146 mg/dL
  RALB: 3.6 g/dL
  TBIL: 0.2 mg/dL
  TC: 66.4 mg/dL
  TG: 137.6 mg/dL
  TP: 6.1 g/dL
  gamma-GTP: 1.4 IU/L
